Measurements as given in patent US11857565B2, “Hydrophobic Auristatin F compounds and conjugates thereof” (priority 2018, dated 2024).
Read-outs that look alike come from different tables or passages of the source. Starred links: 1 amine or outer side, 2 acyl side, 3 side chain; linkers in the order of their positions; H or OH if unused. Non-standard residues stand in square brackets, D forms with d. Residues, ends and D or L forms follow the SMILES beside them. *: point of attachment. X4 = CC(C)[C@@H](C(=O)[*:2])N(CCCCN(C)C(=O)OC(C)(C)C)[*:1]; Dolaproine = CO[C@@H]([C@@H]1CCCN1)[C@@H](C)C(=O)O; X3 = CC(C)[C@@H](C(=O)[*:2])N(C)CCCCN(C)[*:1]; X16 = CC(CCN(C)[C@H](C(=O)*)C(C)C)CC(C)(C)C; X18 = CCCCCCCCCCCCCCCN(C)[C@H](C(=O)*)C(C)C; Dil = CC[C@H](C)[C@H](NC)[C@@H](CC(=O)O)OC; X21 = CCCCCCCCCCCN(C)[C@H](C(=O)*)C(C)C; X8 = CCCCCCCCCCCCN(C)[C@H](C(=O)*)C(C)C; X12 = CCCCCCCCCCN(C)[C@H](C(=O)*)C(C)C; X11 = CCCCCCCCCN(C)[C@H](C(=O)*)C(C)C; X14 = CCCCCCCCN(C)[C@H](C(=O)*)C(C)C; X24 = CC(C)CCCN(C)[C@H](C(=O)*)C(C)C; X20 = CCCCCCCN(C)[C@H](C(=O)*)C(C)C; X22 = CC(C)CCN(C)[C@H](C(=O)*)C(C)C; NMe2Val = CC(C)[C@@H](C(=O)*)N(C)C; X13 = CCCCCN(C)[C@H](C(=O)*)C(C)C; X23 = CCCN(CCC)[C@H](C(=O)*)C(C)C; X9 = CCCCCCN(C)[C@H](C(=O)*)C(C)C; X10 = CCCCN(C)[C@H](C(=O)*)C(C)C; X15 = CCCN(C)[C@H](C(=O)*)C(C)C; X17 = CCN(CC)[C@H](C(=O)*)C(C)C; X19 = CCN(C)[C@H](C(=O)*)C(C)C; NMeV = CN[C@H](C(=O)O)C(C)C; Boc = CC(C)(C)OC(=O)*

Legend:
Assay type in all cases: cell-based
[1] = test system: MDR− HL60 acute myeloid leukemia cell line; assay: In vitro cytotoxicity (CellTiter-Glo cell proliferation assay), free drugs on HL60; conditions: read-out: In vitro IC50 HL60 (MDR−)
Experimental: (§1) The cytotoxicity of an auristatin Ligand Drug Conjugate or free auristatin drug was measured by a cell proliferation assay employing the protocol described in Promega Corp. Technical Bulletin TB288; Mendoza et al., 2002, Cancer Res. 62:5485-5488), the methods of which is specifically incorporated by reference herein. Briefly, an aliquot of 100 μl of cell culture containing about […] (e.g., HL-60, SK-MEL-5, etc.) in medium is deposited in each well of a 96-well, opaque-walled plate. Control wells were prepared containing medium and without cells. Free Drug or conjugate is added to the experimental wells and incubated for 96 h and are then equilibrated to room temperature for approximately 30 minutes whereupon a volume of CellTiter-Glo™ reagent equal to the volume of cell culture medium present in each well is added. The contents are mixed for 2 minutes on an orbital shaker to induce cell lysis and the plate is incubated at room temperature for 10 minutes to stabilize the luminescence signal for recordation.

[2] = test system: MDR+ HL60/RV acute myeloid leukemia cell line; assay: In vitro cytotoxicity (CellTiter-Glo cell proliferation assay), free drugs on HL60/RV; conditions: read-out: In vitro IC50 HL60/RV (MDR+)
Experimental: as §1

SK-MEL-28 Melanoma = assay: In vitro cytotoxicity, free drugs on SK-MEL-28; conditions: free drug
Experimental: as §1

SK-MEL-5 Melanoma = assay: In vitro cytotoxicity, free drugs on SK-MEL-5; conditions: free drug
Experimental: as §1

A2058 Melanoma = assay: In vitro cytotoxicity, free drugs on A2058; conditions: free drug
Experimental: as §1

A375 Melanoma = assay: In vitro cytotoxicity, free drugs on A375; conditions: free drug
Experimental: as §1

IGR-37 Melanoma = assay: In vitro cytotoxicity, free drugs on IGR-37; conditions: free drug
Experimental: as §1

[3] = In vitro cytotoxicity, free drugs on Colo-853; conditions: free drug; read-out: In vitro IC50 Colo-853 Colon Cancer
Experimental: as §1

SMILES | IC50 ([1]; Homo sapiens, HL-60, 96 h) [nM] | IC50 ([2]; Homo sapiens, HL-60, 96 h) [nM] | also measured
CC[C@H](C)[C@@H]([C@@H](CC(=O)N1CCC[C@H]1[C@H](OC)[C@@H](C)C(=O)N[C@@H](Cc1ccccc1)C(=O)O)OC)N(C)C(=O)[C@@H](NC(=O)[C@H](C(C)C)N(C)C)C(C)C [Compound 1, Auristatin F] (NMe2Val-V[Dil][Dolaproine]F-OH) |  |  | IC50 ([1]; free drug, 96 h incubation): 137 nM; IC50 ([2]; free drug, 96 h incubation): 388 nM
CC[C@H](C)[C@@H]([C@@H](CC(=O)N1CCC[C@H]1[C@H](OC)[C@@H](C)C(=O)N[C@@H](Cc1ccccc1)C(=O)O)OC)N(C)C(=O)[C@@H](NC(=O)[C@@H](NC)C(C)C)C(C)C [Compound 2, Monomethyl auristatin F, reference compound] (H-[NMeV]V[Dil][Dolaproine]F-OH) |  |  | IC50 (SK-MEL-28 Melanoma): 138 nM; IC50 (SK-MEL-5 Melanoma): 35.6 nM; IC50 (A2058 Melanoma): 84.2 nM; IC50 (A375 Melanoma): 48.9 nM; IC50 (IGR-37 Melanoma): 72.5 nM; IC50 [3]: 90.2 nM
CC[C@H](C)[C@@H]([C@@H](CC(=O)N1CCC[C@H]1[C@H](OC)[C@@H](C)C(=O)N[C@@H](Cc1ccccc1)C(=O)O)OC)N(C)C(=O)[C@@H](NC(=O)[C@H](C(C)C)N(C)CC)C(C)C [Compound 4, Ethyl-AF] (X19-V[Dil][Dolaproine]F-OH) | 23.2 | 145 | 
CCCN(C)[C@H](C(=O)N[C@H](C(=O)N(C)[C@@H]([C@@H](C)CC)[C@@H](CC(=O)N1CCC[C@H]1[C@H](OC)[C@@H](C)C(=O)N[C@@H](Cc1ccccc1)C(=O)O)OC)C(C)C)C(C)C [Compound 5, Propyl-AF] (X15-V[Dil][Dolaproine]F-OH) | 24.5 | 82.1 | 
CCCCN(C)[C@H](C(=O)N[C@H](C(=O)N(C)[C@@H]([C@@H](C)CC)[C@@H](CC(=O)N1CCC[C@H]1[C@H](OC)[C@@H](C)C(=O)N[C@@H](Cc1ccccc1)C(=O)O)OC)C(C)C)C(C)C [Compound 6, Butyl-AF] (X10-V[Dil][Dolaproine]F-OH) | 14.3 | 47.9 | 
CCCCCN(C)[C@H](C(=O)N[C@H](C(=O)N(C)[C@@H]([C@@H](C)CC)[C@@H](CC(=O)N1CCC[C@H]1[C@H](OC)[C@@H](C)C(=O)N[C@@H](Cc1ccccc1)C(=O)O)OC)C(C)C)C(C)C [Compound 7, Pentyl-AF] (X13-V[Dil][Dolaproine]F-OH) | 6.6 | 35.7 | 
CCCCCCN(C)[C@H](C(=O)N[C@H](C(=O)N(C)[C@@H]([C@@H](C)CC)[C@@H](CC(=O)N1CCC[C@H]1[C@H](OC)[C@@H](C)C(=O)N[C@@H](Cc1ccccc1)C(=O)O)OC)C(C)C)C(C)C [Compound 8, Hexyl-AF] (X9-V[Dil][Dolaproine]F-OH) | 6.9 | 40.9 | 
CCCCCCCN(C)[C@H](C(=O)N[C@H](C(=O)N(C)[C@@H]([C@@H](C)CC)[C@@H](CC(=O)N1CCC[C@H]1[C@H](OC)[C@@H](C)C(=O)N[C@@H](Cc1ccccc1)C(=O)O)OC)C(C)C)C(C)C [Compound 9, Heptyl-AF] (X20-V[Dil][Dolaproine]F-OH) | 7.7 | 88.5 | 
CCCCCCCCN(C)[C@H](C(=O)N[C@H](C(=O)N(C)[C@@H]([C@@H](C)CC)[C@@H](CC(=O)N1CCC[C@H]1[C@H](OC)[C@@H](C)C(=O)N[C@@H](Cc1ccccc1)C(=O)O)OC)C(C)C)C(C)C [Compound 10, Octyl-AF] (X14-V[Dil][Dolaproine]F-OH) | 3.9 | 55.9 | 
CCCCCCCCCN(C)[C@H](C(=O)N[C@H](C(=O)N(C)[C@@H]([C@@H](C)CC)[C@@H](CC(=O)N1CCC[C@H]1[C@H](OC)[C@@H](C)C(=O)N[C@@H](Cc1ccccc1)C(=O)O)OC)C(C)C)C(C)C [Compound 11, Nonyl-AF] (X11-V[Dil][Dolaproine]F-OH) | 1.8 | 35.4 | 
CCCCCCCCCCN(C)[C@H](C(=O)N[C@H](C(=O)N(C)[C@@H]([C@@H](C)CC)[C@@H](CC(=O)N1CCC[C@H]1[C@H](OC)[C@@H](C)C(=O)N[C@@H](Cc1ccccc1)C(=O)O)OC)C(C)C)C(C)C [Compound 12, Decyl-AF] (X12-V[Dil][Dolaproine]F-OH) | 1 | 59.2 | 
CCCCCCCCCCCN(C)[C@H](C(=O)N[C@H](C(=O)N(C)[C@@H]([C@@H](C)CC)[C@@H](CC(=O)N1CCC[C@H]1[C@H](OC)[C@@H](C)C(=O)N[C@@H](Cc1ccccc1)C(=O)O)OC)C(C)C)C(C)C [Compound 13, Undecyl-AF] (X21-V[Dil][Dolaproine]F-OH) | 1 | 60.2 | 
CCCCCCCCCCCCN(C)[C@H](C(=O)N[C@H](C(=O)N(C)[C@@H]([C@@H](C)CC)[C@@H](CC(=O)N1CCC[C@H]1[C@H](OC)[C@@H](C)C(=O)N[C@@H](Cc1ccccc1)C(=O)O)OC)C(C)C)C(C)C [Compound 14, Dodecyl-AF] (X8-V[Dil][Dolaproine]F-OH) | 1.4 | 138 | 
CCCCCCCCCCCCCCCN(C)[C@H](C(=O)N[C@H](C(=O)N(C)[C@@H]([C@@H](C)CC)[C@@H](CC(=O)N1CCC[C@H]1[C@H](OC)[C@@H](C)C(=O)N[C@@H](Cc1ccccc1)C(=O)O)OC)C(C)C)C(C)C [Compound 15, Pentadecyl-AF] (X18-V[Dil][Dolaproine]F-OH) | 4.7 | 294 | 
CC[C@H](C)[C@@H]([C@@H](CC(=O)N1CCC[C@H]1[C@H](OC)[C@@H](C)C(=O)N[C@@H](Cc1ccccc1)C(=O)O)OC)N(C)C(=O)[C@@H](NC(=O)[C@H](C(C)C)N(C)CCCCN(C)C(=O)OC(C)(C)C)C(C)C [Compound 16, (Boc-N-methyl)-butyl-AF] (Boc-[X3]V[Dil][Dolaproine]F-OH) |  |  | IC50 (SK-MEL-28 Melanoma; Homo sapiens, SK-MEL-28): 4.4 nM; IC50 (SK-MEL-5 Melanoma; Homo sapiens, SK-MEL-5): 0.4 nM; IC50 (A2058 Melanoma; Homo sapiens, A2058): 0.9 nM; IC50 (A375 Melanoma; Homo sapiens, A-375): 0.7 nM; IC50 (IGR-37 Melanoma; Homo sapiens, IGR-37): 2.5 nM; IC50 [3]: 6.2 nM
CC[C@H](C)[C@@H]([C@@H](CC(=O)N1CCC[C@H]1[C@H](OC)[C@@H](C)C(=O)N[C@@H](Cc1ccccc1)C(=O)O)OC)N(C)C(=O)[C@@H](NC(=O)[C@@H](NCCCCN(C)C(=O)OC(C)(C)C)C(C)C)C(C)C [Compound 17, (Boc-N-methyl)-butyl-AF] (H-[X4]V[Dil][Dolaproine]F-OH) |  |  | IC50 (SK-MEL-28 Melanoma; Homo sapiens, SK-MEL-28): 77.3 nM; IC50 (SK-MEL-5 Melanoma; Homo sapiens, SK-MEL-5): 26.2 nM; IC50 (A2058 Melanoma; Homo sapiens, A2058): 20.3 nM; IC50 (A375 Melanoma; Homo sapiens, A-375): 14.8 nM; IC50 (IGR-37 Melanoma; Homo sapiens, IGR-37): 62.7 nM; IC50 [3]: 66.2 nM
CC[C@H](C)[C@@H]([C@@H](CC(=O)N1CCC[C@H]1[C@H](OC)[C@@H](C)C(=O)N[C@@H](Cc1ccccc1)C(=O)O)OC)N(C)C(=O)[C@@H](NC(=O)[C@H](C(C)C)N(C)CCCC(C)C)C(C)C [Compound 19, 4-Methylpentyl-AF] (X24-V[Dil][Dolaproine]F-OH) | 4.9 | 20.5 | 
CC[C@H](C)[C@@H]([C@@H](CC(=O)N1CCC[C@H]1[C@H](OC)[C@@H](C)C(=O)N[C@@H](Cc1ccccc1)C(=O)O)OC)N(C)C(=O)[C@@H](NC(=O)[C@H](C(C)C)N(C)CCC(C)CC(C)(C)C)C(C)C (stereo partly drawn) [Compound 20, 3,5,5-Trimethylhexyl-AF] (X16-V[Dil][Dolaproine]F-OH) | 1 | 17 | 
CC[C@H](C)[C@@H]([C@@H](CC(=O)N1CCC[C@H]1[C@H](OC)[C@@H](C)C(=O)N[C@@H](Cc1ccccc1)C(=O)O)OC)N(C)C(=O)[C@@H](NC(=O)[C@H](C(C)C)N(C)CCC(C)C)C(C)C [Compound 21, 3-Methylbutyl-AF] (X22-V[Dil][Dolaproine]F-OH) | 9 | 46.3 | 
CC[C@H](C)[C@@H]([C@@H](CC(=O)N1CCC[C@H]1[C@H](OC)[C@@H](C)C(=O)N[C@@H](Cc1ccccc1)C(=O)O)OC)N(C)C(=O)[C@@H](NC(=O)[C@H](C(C)C)N(CC)CC)C(C)C [Compound 22, Bis(ethyl)-AF] (X17-V[Dil][Dolaproine]F-OH) | 13.6 | 202 | 
CCCN(CCC)[C@H](C(=O)N[C@H](C(=O)N(C)[C@@H]([C@@H](C)CC)[C@@H](CC(=O)N1CCC[C@H]1[C@H](OC)[C@@H](C)C(=O)N[C@@H](Cc1ccccc1)C(=O)O)OC)C(C)C)C(C)C [Compound 23, Bis(propyl)-AF] (X23-V[Dil][Dolaproine]F-OH) | 6.2 | 437 | 
